Here are results for six compounds from ChEMBL document CHEMBL1697781, “Assessment of the health effects of chemicals in humans: II. Construction of an adverse effects database for QSAR modeling” (Curr Drug Discov Technol, 2004).

Common to all, as to conditions: human
For series [1], the system named is Hepatotoxicity. Briefly: FDA HLAED, serum glutamic pyruvic transaminase (SGPT) increase.
The subject of series [2] is Hepatotoxicity. Briefly: FDA HLAED, serum glutamic oxaloacetic transaminase (SGOT) increase.
Series [3] has as its system Hepatotoxicity. Briefly: FDA HLAED, lactate dehydrogenase (LDH) increase.
Series [4] deals with Hepatotoxicity. Briefly: FDA HLAED, gamma-glutamyl transferase (GGT) increase.
For series [5], the system named is Hepatotoxicity. The series can be described thus: FDA HLAED, liver enzyme composite activity.
The test system of series [6] is Hepatotoxicity. Briefly: FDA HLAED, alkaline phosphatase increase.
For GGT Increase - Index Value in this document: reference of the scale not given here.
For LDH Increase - Index Value in this document: reference of the scale not given here.

For the compound `O=C1C(O)=C([C@H]2CC[C@H](c3ccc(Cl)cc3)CC2)C(=O)c2ccccc21` [ATOVAQUONE], in the series with Hepatotoxicity [1], the “SGPT Increase - Activity Score” value was “Inactive”, the “SGPT Increase - Index Value” came out at 18.2 and the “SGPT Increase - Number of Reports” value is listed as under 4. Besides, in the series with Hepatotoxicity [2], the “SGOT Increase - Activity Score” value is “Inactive”, the “SGOT Increase - Index Value” came to 18.2 and the “SGOT Increase - Number of Reports” value is under 4. Moreover, in the series on Hepatotoxicity [3], the “LDH Increase - Activity Score” value is given as “Inactive”, the “LDH Increase - Index Value” is 9.1 and the “LDH Increase - Number of Reports” value is given as under 4. In addition, in the series on Hepatotoxicity [4], the “GGT Increase - Activity Score” value is “Inactive”, the “GGT Increase - Index Value” amounted to 0 and the “GGT Increase - Number of Reports” value is under 4. In the series with Hepatotoxicity [5], the “Composite Activity - Active” value worked out at 0, the “Composite Activity - Marginal” value is on record as 0 and the “Composite Activity - Score” value is on record as “Inactive”. In the series with Hepatotoxicity [6], the “Alkaline Phosphatase Increase - Activity Score” value is on record as “Inactive”, the “Alkaline Phosphatase Increase - Index Value” is 0 and the “Alkaline Phosphatase Increase - Number of Reports” value was under 4.

As to `O=C(O)CCCCCCCC(=O)O` [AZELAIC ACID], in the series with Hepatotoxicity [1], the “SGPT Increase - Activity Score” value is “Inactive”, the “SGPT Increase - Index Value” came to 0 and the “SGPT Increase - Number of Reports” value is given as under 4. In the series on Hepatotoxicity [2], the “SGOT Increase - Activity Score” value is given as “Inactive”, the “SGOT Increase - Index Value” is recorded as 0 and the “SGOT Increase - Number of Reports” value is under 4. In the series with Hepatotoxicity [3], the “LDH Increase - Activity Score” value is “Inactive”, the “LDH Increase - Index Value” was 0 and the “LDH Increase - Number of Reports” value was under 4. For the same compound, in the series on Hepatotoxicity [4], the “GGT Increase - Activity Score” value was “Inactive”, the “GGT Increase - Index Value” turned out to be 0 and the “GGT Increase - Number of Reports” value is on record as under 4. In the series with Hepatotoxicity [5], the “Composite Activity - Active” value is on record as 0, the “Composite Activity - Marginal” value worked out at 0 and the “Composite Activity - Score” value is on record as “Inactive”. For the same compound, in the series with Hepatotoxicity [6], the “Alkaline Phosphatase Increase - Activity Score” value is “Inactive”, the “Alkaline Phosphatase Increase - Index Value” turned out to be 0 and the “Alkaline Phosphatase Increase - Number of Reports” value is recorded as under 4.

Consider `CN1CCCC(n2nc(Cc3ccc(Cl)cc3)c3ccccc3c2=O)CC1` (stereo not drawn) [AZELASTINE], for which, in the series on Hepatotoxicity [1], the “SGPT Increase - Activity Score” value is reported as “Inactive”, the “SGPT Increase - Index Value” is recorded as 0 and the “SGPT Increase - Number of Reports” value is listed as under 4. Moreover, in the series with Hepatotoxicity [2], the “SGOT Increase - Activity Score” value is “Inactive”, the “SGOT Increase - Index Value” is reported as 0 and the “SGOT Increase - Number of Reports” value is listed as under 4. In the series on Hepatotoxicity [3], the “LDH Increase - Activity Score” value is given as “Inactive”, the “LDH Increase - Index Value” came out at 0 and the “LDH Increase - Number of Reports” value is given as under 4. In the series on Hepatotoxicity [4], the “GGT Increase - Activity Score” value is “Inactive”, the “GGT Increase - Index Value” is listed as 0 and the “GGT Increase - Number of Reports” value is on record as under 4. Moreover, in the series on Hepatotoxicity [5], the “Composite Activity - Active” value came out at 0, the “Composite Activity - Marginal” value came out at 0 and the “Composite Activity - Score” value is listed as “Inactive”. In the series with Hepatotoxicity [6], the “Alkaline Phosphatase Increase - Activity Score” value is recorded as “Inactive”, the “Alkaline Phosphatase Increase - Index Value” came out at 0 and the “Alkaline Phosphatase Increase - Number of Reports” value is under 4.

On to `CC[C@H]1OC(=O)[C@H](C)[C@@H](O[C@H]2C[C@@](C)(OC)[C@@H](O)[C@H](C)O2)[C@H](C)[C@@H](O[C@@H]2O[C@H](C)C[C@H](N(C)C)[C@H]2O)[C@](C)(O)C[C@@H](C)CN(C)[C@H](C)[C@@H](O)[C@]1(C)O` [AZITHROMYCIN], for which, in the series on Hepatotoxicity [1], the “SGPT Increase - Activity Score” value is listed as “Inactive”, the “SGPT Increase - Index Value” is listed as 2.3 and the “SGPT Increase - Number of Reports” value was “>= 4”. Moreover, in the series on Hepatotoxicity [2], the “SGOT Increase - Activity Score” value is “Inactive”, the “SGOT Increase - Index Value” was found to be 2.9 and the “SGOT Increase - Number of Reports” value is recorded as “>= 4”. Further, in the series with Hepatotoxicity [3], the “LDH Increase - Activity Score” value is given as “Inactive”, the “LDH Increase - Index Value” is on record as 0.8 and the “LDH Increase - Number of Reports” value is listed as “>= 4”. For the same compound, in the series with Hepatotoxicity [4], the “GGT Increase - Activity Score” value is “Inactive”, the “GGT Increase - Index Value” was 1 and the “GGT Increase - Number of Reports” value was “>= 4”. In the series on Hepatotoxicity [5], the “Composite Activity - Active” value is 0, the “Composite Activity - Marginal” value amounted to 0 and the “Composite Activity - Score” value is given as “Inactive”. In addition, in the series with Hepatotoxicity [6], the “Alkaline Phosphatase Increase - Activity Score” value is “Inactive”, the “Alkaline Phosphatase Increase - Index Value” amounted to 1 and the “Alkaline Phosphatase Increase - Number of Reports” value is on record as “>= 4”.

As to `C[C@H]1[C@H](NC(=O)/C(=N\OC(C)(C)C(=O)O)c2csc(N)n2)C(=O)N1S(=O)(=O)O` [AZTREONAM], in the series on Hepatotoxicity [1], the “SGPT Increase - Activity Score” value is “Marginally Active”, the “SGPT Increase - Index Value” came out at 3.8 and the “SGPT Increase - Number of Reports” value is “>= 4”. In addition, in the series with Hepatotoxicity [2], the “SGOT Increase - Activity Score” value is “Marginally Active”, the “SGOT Increase - Index Value” was determined as 3.2 and the “SGOT Increase - Number of Reports” value is given as “>= 4”. Moreover, in the series with Hepatotoxicity [3], the “LDH Increase - Activity Score” value is on record as “Inactive”, the “LDH Increase - Index Value” was found to be 0.6 and the “LDH Increase - Number of Reports” value is under 4. For the same compound, in the series on Hepatotoxicity [4], the “GGT Increase - Activity Score” value was “Inactive”, the “GGT Increase - Index Value” worked out at 0.6 and the “GGT Increase - Number of Reports” value is under 4. Besides, in the series on Hepatotoxicity [5], the “Composite Activity - Active” value stood at 1, the “Composite Activity - Marginal” value is given as 2 and the “Composite Activity - Score” value is reported as “Inactive”. In the series with Hepatotoxicity [6], the “Alkaline Phosphatase Increase - Activity Score” value is “Active”, the “Alkaline Phosphatase Increase - Index Value” was determined as 6.9 and the “Alkaline Phosphatase Increase - Number of Reports” value was “>= 4”.

Regarding `CCOC(=O)OC(C)OC(=O)[C@@H]1N2C(=O)[C@@H](NC(=O)[C@H](N)c3ccccc3)[C@H]2SC1(C)C` (stereo partly drawn) [BACAMPICILLIN], in the series with Hepatotoxicity [1], the “SGPT Increase - Activity Score” value is “Inactive”, the “SGPT Increase - Index Value” amounted to 0 and the “SGPT Increase - Number of Reports” value is on record as under 4. For the same compound, in the series with Hepatotoxicity [2], the “SGOT Increase - Activity Score” value is on record as “Inactive”, the “SGOT Increase - Index Value” is on record as 0 and the “SGOT Increase - Number of Reports” value is given as under 4. In addition, in the series on Hepatotoxicity [3], the “LDH Increase - Activity Score” value is on record as “Inactive”, the “LDH Increase - Index Value” worked out at 0 and the “LDH Increase - Number of Reports” value is reported as under 4. In the series on Hepatotoxicity [4], the “GGT Increase - Activity Score” value is on record as “Inactive”, the “GGT Increase - Index Value” was found to be 0 and the “GGT Increase - Number of Reports” value is under 4. Also, in the series on Hepatotoxicity [5], the “Composite Activity - Active” value amounted to 0, the “Composite Activity - Marginal” value is 0 and the “Composite Activity - Score” value is reported as “Inactive”. Besides, in the series on Hepatotoxicity [6], the “Alkaline Phosphatase Increase - Activity Score” value is given as “Inactive”, the “Alkaline Phosphatase Increase - Index Value” was 0 and the “Alkaline Phosphatase Increase - Number of Reports” value was under 4.
